Inconclusive results and toxic doses are left out.
Test system: L1210 leukemia ip in BDF1 mice, survival T/C
Test: NCI In Vivo Anticancer Drug Screen. Data for tumor model L1210 Leukemia (intraperitoneal) in B6D2F1 (BDF1) mice
Settings: endpoint: mean survival time, higher = longer survival
Outline: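 Tumor was transplanted into mice, which were then dosed with test compound or vehicle alone. Survival was recorded for each group, and the treated figure was expressed relative to the control figure.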

[1] = dose: 100.0 mg/kg/injection, schedule: Q01DX009 (ip), vehicle: Klucel (hydroxypropylcellulose) (HPC)
[2] = dose: 100.0 mg/kg/injection, schedule: Q04DX003 (ip), vehicle: saline with Tween-80
[3] = dose: 200.0 mg/kg/injection, schedule: Q04DX003 (ip), vehicle: saline with Tween-80
[4] = dose: 400.0 mg/kg/injection, schedule: Q04DX003 (ip), vehicle: saline with Tween-80
[5] = dose: 100.0 mg/kg/injection, schedule: Q01DX001 (ip), vehicle: carboxymethylcellulose (CMC)

`COC(=O)CC(C(=O)OC)C(=O)OC` was tested, and the T/C (dose: 75.0 mg/kg/injection, schedule: Q01DX001 (ip), vehicle: Klucel (hydroxypropylcellulose) (HPC)) was 105 % of control, the T/C (dose: 75.0 mg/kg/injection, schedule: Q01DX009 (ip), vehicle: Klucel (hydroxypropylcellulose) (HPC)) was 97 % of control and the T/C (dose: 150.0 mg/kg/injection, schedule: Q01DX001 (ip), vehicle: Klucel (hydroxypropylcellulose) (HPC)) was 103 % of control. For the same compound, the T/C (dose: 150.0 mg/kg/injection, schedule: Q01DX009 (ip), vehicle: Klucel (hydroxypropylcellulose) (HPC)) was 105 % of control, the T/C (dose: 300.0 mg/kg/injection, schedule: Q01DX001 (ip), vehicle: Klucel (hydroxypropylcellulose) (HPC)) was 90 % of control and the T/C (dose: 300.0 mg/kg/injection, schedule: Q01DX009 (ip), vehicle: Klucel (hydroxypropylcellulose) (HPC)) was 105 % of control.
In the case of `O=S(=O)(NC/C=C/c1ccccc1)c1ccccc1`, the T/C (dose: 100.0 mg/kg/injection, schedule: Q01DX001 (ip), vehicle: Klucel (hydroxypropylcellulose) (HPC)) is reported as 96 % of control, the T/C (dose: 200.0 mg/kg/injection, schedule: Q01DX001 (ip), vehicle: Klucel (hydroxypropylcellulose) (HPC)) is reported as 103 % of control and the T/C (dose: 400.0 mg/kg/injection, schedule: Q01DX001 (ip), vehicle: Klucel (hydroxypropylcellulose) (HPC)) is reported as 102 % of control.
With `CCCCC(CC)CN(CCOc1nc(OCCN(CC(CC)CCCC)CC(CC)CCCC)nc(OCCN(CC(CC)CCCC)CC(CC)CCCC)n1)CC(CC)CCCC` (centres undefined) the T/C (dose: 25.6 mg/kg/injection, schedule: Q04DX002 (ip), vehicle: saline with Tween-80) was 102 % of control, the T/C (dose: 64.0 mg/kg/injection, schedule: Q04DX002 (ip), vehicle: saline with Tween-80) was 94 % of control and the T/C (dose: 160.0 mg/kg/injection, schedule: Q04DX002 (ip), vehicle: saline with Tween-80) was 97 % of control. For the same compound, the T/C (dose: 400.0 mg/kg/injection, schedule: Q04DX002 (ip), vehicle: saline with Tween-80) was 94 % of control.
In the case of `CCOC(=O)c1c(NC(=O)CCC(=O)Nc2sc(C)c(C)c2C(=O)OCC)sc(C)c1C`, the T/C (dose: 50.0 mg/kg/injection, schedule: Q04DX003 (ip), vehicle: saline with Tween-80) is reported as 88 % of control, the T/C [1] is reported as 90 % of control and the T/C [2] is reported as 98 % of control. For the same compound, the T/C [3] was 90 % of control, the T/C (dose: 400.0 mg/kg/injection, schedule: Q01DX009 (ip), vehicle: Klucel (hydroxypropylcellulose) (HPC)) was 88 % of control and the T/C [4] was 88 % of control.
For `S=C1SCN(C2CCCCCCCCCCC2)CN1C1CCCCCCCCCCC1`, the T/C [2] was 96 % of control, the T/C [3] was 91 % of control and the T/C [4] was 95 % of control.
`CC(C)CCCC(C)C1CCC2C3CCC4=C/C(=N/NC(N)=O)CCC4(C)C3CCC12C` (centres undefined) was tested, and the T/C (dose: 50.0 mg/kg/injection, schedule: Q01DX009 (ip), vehicle: Klucel (hydroxypropylcellulose) (HPC)) was 97 % of control, the T/C [1] was 90 % of control and the T/C (dose: 200.0 mg/kg/injection, schedule: Q01DX009 (ip), vehicle: Klucel (hydroxypropylcellulose) (HPC)) was 88 % of control.
For `C[N+]1(CCCCCNC2=CC(=O)C(NCCCCC[N+]3(C)CCCCC3)=CC2=O)CCCCC1`, the T/C (dose: 0.1 mg/kg/injection, schedule: Q01DX001 (ip), vehicle: saline) was 96 % of control.
For `CCOc1cc(C=Nc2cc(Cl)c(O)c(Cl)c2)ccc1N(CCCl)CCCl`, the T/C (dose: 5.0 mg/kg/injection, schedule: Q01DX009 (ip), vehicle: carboxymethylcellulose (CMC)) was 114 % of control, the T/C (dose: 5.0 mg/kg/injection, schedule: Q01DX009 (ip), vehicle: saline) was 105 % of control and the T/C (dose: 10.0 mg/kg/injection, schedule: Q01DX009 (ip), vehicle: saline) was 106 % of control. For the same compound, the T/C (dose: 13.0 mg/kg/injection, schedule: Q01DX009 (ip), vehicle: carboxymethylcellulose (CMC)) was 120 % of control, the T/C (dose: 25.0 mg/kg/injection, schedule: Q01DX001 (ip), vehicle: saline) was 109 % of control and the T/C (dose: 44.0 mg/kg/injection, schedule: Q01DX001 (ip), vehicle: carboxymethylcellulose (CMC)) was 118 % of control. The T/C (dose: 44.0 mg/kg/injection, schedule: Q01DX009 (ip), vehicle: other) was 113 % of control, the T/C (dose: 50.0 mg/kg/injection, schedule: Q01DX001 (ip), vehicle: saline) was 116 % of control and the T/C [5] was 150 % of control.
For `O=C(O)C(Cl)Cl`, the T/C (dose: 100.0 mg/kg/injection, schedule: Q04DX003 (ip), vehicle: saline) was 98 % of control and the T/C (dose: 200.0 mg/kg/injection, schedule: Q04DX003 (ip), vehicle: saline) was 93 % of control.
With `COc1ccc(OC)c(NC(=S)NNC(=S)NNc2ccccc2)c1` the T/C (dose: 100.0 mg/kg/injection, schedule: Q04DX002 (ip), vehicle: Klucel (hydroxypropylcellulose) (HPC)) was 101 % of control, the T/C (dose: 200.0 mg/kg/injection, schedule: Q04DX002 (ip), vehicle: Klucel (hydroxypropylcellulose) (HPC)) was 104 % of control and the T/C (dose: 400.0 mg/kg/injection, schedule: Q04DX002 (ip), vehicle: Klucel (hydroxypropylcellulose) (HPC)) was 93 % of control.
`Clc1cc2nc3[nH]c4ccccc4c3nc2cc1Cl` was tested, and the T/C (dose: 100.0 mg/kg/injection, schedule: Q01DX001 (ip), vehicle: saline) was 97 % of control.
For `O=[N+]([O-])c1ccc(N/N=C/C(Br)(Br)Br)c([N+](=O)[O-])c1`, the T/C (dose: 50.0 mg/kg/injection, schedule: Q01DX001 (ip), vehicle: carboxymethylcellulose (CMC)) was 99 % of control and the T/C [5] was 94 % of control.
In the case of `CC(C)C(C(=O)c1ccccc1)c1ccccc1` (centres undefined), the T/C (dose: 100.0 mg/kg/injection, schedule: Q01DX009 (ip), vehicle: saline with Tween-80) is reported as 93 % of control, the T/C [2] is reported as 99 % of control and the T/C (dose: 200.0 mg/kg/injection, schedule: Q01DX009 (ip), vehicle: saline with Tween-80) is reported as 93 % of control. For the same compound, the T/C [3] was 100 % of control, the T/C (dose: 400.0 mg/kg/injection, schedule: Q01DX009 (ip), vehicle: saline with Tween-80) was 104 % of control and the T/C [4] was 89 % of control.

— PubChem BioAssay AID248 (DTP/NCI, 2004)
